Results from EPA's ToxRefDB 2.

How the values were obtained:
mouse [1] = settings: Multigenerational reproductive toxicity study, cd1, Oral, Gavage/Intubation, dose end: 2 generation
mouse [2] = settings: Subchronic oral toxicity in rodents, b6c3f1, Gavage/Intubation, dose end: 14 week, group: systemic
mouse [3] = settings: Subchronic oral toxicity in rodents, b6c3f1, Gavage/Intubation, dose end: 94 day, group: systemic, systemic / hematology / erythrocyte (rbc) count differential / erythrocyte (rbc) + systemic / hematology / hematocrit (hct) / hematocrit (…
mouse [4] = settings: Multigenerational reproductive toxicity study, cd1, Oral, Gavage/Intubation, dose end: 1 generation
mouse [5] = settings: Prenatal developmental toxicity study, cd1, Oral, Gavage/Intubation, dose end: 16 GD, group: developmental
mouse [6] = settings: Other (NonGuideline or Guideline Not Listed), cd1, Oral, Gavage/Intubation, dose end: 2 year, group: cannot be grouped
mouse [7] = settings: Carcinogenicity, b6c3f1, Oral, Gavage/Intubation, dose end: 2 year, group: systemic
mouse [8] = settings: Prenatal developmental toxicity study, swiss albino, Oral, Gavage/Intubation, dose end: 15 GD
mouse [9] = settings: Sub-acute repeat dose toxicity, b6c3f1, Oral, Gavage/Intubation, dose end: 16 day, group: systemic
rat [10] = settings: Subchronic oral toxicity in rodents, fischer, Gavage/Intubation, dose end: 13 week, group: systemic, systemic / in life observation / clinical signs / lethargy + systemic / in life observation / mortality / mortality
mouse [11] = settings: Subchronic oral toxicity in rodents, b6c3f1, Gavage/Intubation, dose end: 13 week, group: systemic
rat [12] = settings: Carcinogenicity, fischer, Oral, Gavage/Intubation, dose end: 103 week, group: systemic
rat [13] = settings: Sub-acute repeat dose toxicity, fischer, Oral, Gavage/Intubation, dose end: 16 day, group: systemic
mouse [14] = settings: Carcinogenicity; b6c3f1; Oral; Gavage/Intubation; dose end: 103 week; group: systemic; systemic / pathology microscopic / kidney / inflammation + systemic / pathology microscopic / liver / cytomegaly + systemic / pathology …
[15] = group: offspring, systemic / in life observation / body weight / offspring (pup) weight
[16] = group: parental, systemic / in life observation / body weight / body weight + systemic / in life observation / body weight / dam weight + systemic / …
[17] = group: parental, systemic / in life observation / body weight / body weight + systemic / pathology gross / sperm measure / sperm morphology + systemic / …
[18] = group: reproductive, reproductive / offspring survival early / live fetuses / live fetuses
[19] = group: reproductive, reproductive / reproductive performance / reproductive performance other / NOS + reproductive / reproductive performance / gestational …
[20] = systemic / hematology / erythrocyte (rbc) count differential / erythrocyte (rbc) + systemic / hematology / hematocrit (hct) / hematocrit (…
[21] = group: parental, systemic / hematology / leukocyte (wbc) count differential / leukocyte (wbc) + systemic / hematology / mean corpuscular (cell) volume (mcv…
[22] = group: parental, systemic / hematology / mean corpuscular (cell) volume (mcv) / mean corpuscular (cell) volume (mcv) + systemic / hematology / mean …
[23] = group: reproductive, reproductive / reproductive performance / pregnancy / pregnancy + reproductive / reproductive performance / resorptions / resorptions + …
[24] = developmental / developmental malformation / bone / supernumerary + systemic / in life observation / body weight / fetal weight
[25] = systemic / in life observation / body weight / fetal weight
[26] = reproductive / reproductive performance / fertility / fertility + reproductive / offspring survival early / litter size / litter size + …
[27] = systemic / hematology / erythrocyte (rbc) count differential / erythrocyte (rbc) + systemic / hematology / mean corpuscular (cell) volume (…
[28] = group: developmental, systemic / in life observation / body weight / fetal weight
[29] = group: maternal, systemic / in life observation / food consumption / food consumption
[30] = systemic / in life observation / body weight / body weight
[31] = systemic / in life observation / body weight / body weight + systemic / in life observation / clinical signs / abnormal movements + systemic…
[32] = systemic / in life observation / mortality / mortality
[33] = systemic / in life observation / mortality / mortality + systemic / in life observation / body weight / body weight
[34] = systemic / pathology microscopic / kidney / hyperplasia + systemic / pathology microscopic / kidney / mineralization
[35] = systemic / pathology microscopic / kidney / hyperplasia + systemic / pathology microscopic / kidney / mineralization + systemic / pathology …
[36] = systemic / in life observation / clinical signs / lethargy

Compound: Cc1cn([C@H]2C[C@H](N=[N+]=[N-])[C@@H](CO)O2)c(=O)[nH]c1=O [3'-Azido-3'-deoxythymidine]
- LEL (mouse [1]; [15]): 200 mg/kg/day
- LOAEL (mouse [1]; [15]): > 200 mg/kg/day
- NEL (mouse [1]; [15]): 100 mg/kg/day
- NOAEL (mouse [1]; [15]): ≥ 200 mg/kg/day
- LOAEL (mouse [1]; [16]): > 200 mg/kg/day
- NOAEL (mouse [1]; [16]): ≥ 200 mg/kg/day
- LEL (mouse [1]; [17]): 50 mg/kg/day
- NEL (mouse [1]; [17]): < 50 mg/kg/day
- LEL (mouse [1]; [18]): 50 mg/kg/day
- NEL (mouse [1]; [18]): < 50 mg/kg/day
- LOAEL (mouse [1]; [19]): > 200 mg/kg/day
- NOAEL (mouse [1]; [19]): ≥ 200 mg/kg/day
- LEL (mouse [2]; [20]): 50 mg/kg/day
- NEL (mouse [2]; [20]): < 50 mg/kg/day
- LOAEL (mouse [2]; systemic / in life observation / body weight / body weight gain + systemic / pathology microscopic / bone marrow / atrophy): 800 mg/kg/day
- NOAEL (mouse [2]; systemic / in life observation / body weight / body weight gain + systemic / pathology microscopic / bone marrow / atrophy + systemic / …): 200 mg/kg/day
- LEL (mouse [3]): 100 mg/kg/day
- LOAEL (mouse [3]): > 400 mg/kg/day
- NEL (mouse [3]): < 100 mg/kg/day
- NOAEL (mouse [3]): ≥ 400 mg/kg/day
- LOAEL (mouse [4]; [21]): > 400 mg/kg/day
- NOAEL (mouse [4]; [21]): ≥ 400 mg/kg/day
- LEL (mouse [4]; [22]): 100 mg/kg/day
- NEL (mouse [4]; [22]): < 100 mg/kg/day
- LEL (mouse [4]; group: reproductive, reproductive / reproductive performance / pregnancy / pregnancy): 200 mg/kg/day
- NEL (mouse [4]; group: reproductive, reproductive / reproductive performance / pregnancy / pregnancy + reproductive / reproductive performance / resorptions / resorptions): 100 mg/kg/day
- LOAEL (mouse [4]; [23]): > 400 mg/kg/day
- NOAEL (mouse [4]; [23]): ≥ 400 mg/kg/day
- LOAEL (mouse [5]; [24]): > 400 mg/kg/day
- NOAEL (mouse [5]; [24]): ≥ 400 mg/kg/day
- LEL (mouse [5]; [25]): 100 mg/kg/day
- NEL (mouse [5]; [25]): < 100 mg/kg/day
- NEL (mouse [6]; reproductive / reproductive performance / fertility / fertility): 100 mg/kg/day
- LEL (mouse [6]; [26]): 200 mg/kg/day
- LOAEL (mouse [6]; [26]): > 300 mg/kg/day
- NOAEL (mouse [6]; [26]): ≥ 300 mg/kg/day
- LEL (mouse [7]; [27]): 30 mg/kg/day
- NEL (mouse [7]; [27]): < 30 mg/kg/day
- LOAEL (mouse [7]; systemic / pathology microscopic / vagina / hyperplasia): 120 mg/kg/day
- NOAEL (mouse [7]; systemic / pathology microscopic / vagina / hyperplasia + systemic / pathology microscopic / liver / adenoma/carcinoma combined + systemic…): 60 mg/kg/day
- LEL (mouse [8]; [28]): 100 mg/kg/day
- LOAEL (mouse [8]; [28]): > 400 mg/kg/day
- NEL (mouse [8]; [28]): < 100 mg/kg/day
- NOAEL (mouse [8]; [28]): ≥ 400 mg/kg/day
- LEL (mouse [8]; [29]): 400 mg/kg/day
- LOAEL (mouse [8]; [29]): > 400 mg/kg/day
- NEL (mouse [8]; [29]): 200 mg/kg/day
- NOAEL (mouse [8]; [29]): ≥ 400 mg/kg/day

Compound: CC1=CC(=O)CC(C)(C)C1 [Isophorone]
- LEL (mouse [9]; [30]): 250 mg/kg/day
- LOAEL (mouse [9]; [30]): 250 mg/kg/day
- NEL (mouse [9]; [31]): 125 mg/kg/day
- NOAEL (mouse [9]; [31]): 125 mg/kg/day
- LEL (rat [10]): 1000 mg/kg/day
- LOAEL (rat [10]): > 1000 mg/kg/day
- NEL (rat [10]): 500 mg/kg/day
- NOAEL (rat [10]): ≥ 1000 mg/kg/day
- LEL (mouse [11]; [32]): 1000 mg/kg/day
- NEL (mouse [11]; [32]): 500 mg/kg/day
- LOAEL (mouse [11]; [33]): > 1000 mg/kg/day
- NOAEL (mouse [11]; [33]): ≥ 1000 mg/kg/day
- LOAEL (rat [12]; [34]): 250 mg/kg/day
- NOAEL (rat [12]; [34]): < 250 mg/kg/day
- LEL (rat [12]; [35]): 250 mg/kg/day
- NEL (rat [12]; [35]): < 250 mg/kg/day
- LOAEL (rat [13]; [30]): 1000 mg/kg/day
- LEL (rat [13]; [36]): 125 mg/kg/day
- NEL (rat [13]; [36]): < 125 mg/kg/day
- NOAEL (rat [13]; systemic / in life observation / clinical signs / lethargy + systemic / in life observation / body weight / body weight + systemic / in life…): 500 mg/kg/day
- LEL (mouse [14]): 250 mg/kg/day
- LOAEL (mouse [14]): 250 mg/kg/day
- NEL (mouse [14]): < 250 mg/kg/day
- NOAEL (mouse [14]): < 250 mg/kg/day
